Laboratory results taken from article PMC11066876, “Late-Stage Saturation of Drug Molecules” (Journal of the American Chemical Society, 2024).
pIC50: −log10 of the molar value. Converted amounts (≈) assume the structure as drawn.

Columns and labels:
[1] = High-throughput (direct-to-biology) human liver microsomal stability assay; settings: for %Change After 60 min: %remaining after LSS minus before LSS at 60 min; for remaining at 0 h, 105 µM / remaining at 0.25 h, 105 µM / remaining at 0.5 h, 105 µM / remaining at 1 h, 105 µM / half-life at 105 µM: both, human, microsomes, pH 7.4
[2] = Measurement of LogPo/w (n-octanol/water, RP-HPLC); assay type: physicochemical; settings: n = 3; for logP at 24 h: measured n-octanol-water partition coefficient, 30 °C; for C(oil): n-octanol phase; for C(oil) / C(aqueous): n-octanol/water 1:1, 30 °C, 24 h; for C(aqueous): water phase
[3] = Metabolic stability in human liver microsomes (Pharmaron); settings: for CLint scaled at 1 µM / microsomal CLint at 1 µM / half-life at 1 µM: both, microsomes; for CLint scaled at 1 µM / microsomal CLint at 1 µM / half-life at 1 µM / Hepatic Extraction Ratio (ER) / Predicted Hepatic CLH: human; for Remaining Percentage 0.5 min / Remaining Percentage 5 min / Remaining Percentage 15 min / Remaining Percentage 30 min: human liver microsomes 0.5 mg/mL, +Cofactors (NADPH), 1 μM; for Predicted Hepatic CLH: QH 21 mL/min/kg, fub assumed 1
SARS-CoV M^pro = settings: Figure 1B; cited from earlier work
[4] = design: method as in PMID 23701517; settings: aqueous solubility, Figure 1B; cited from earlier work
[5] = design: method as in PMID 23701517; settings: Figure 1B; cited from earlier work
[6] = Traditional t1/2, human liver microsomes, Figure 6B
[7] = in vitro t1/2, human liver microsomes, Table S21

Row | SMILES | %Change After 60 min ([1]; human liver microsomes) [%] | remaining at 0 h, 105 µM [1] [%] | remaining at 0.25 h, 105 µM [1] [%] | remaining at 0.5 h, 105 µM [1] [%] | remaining at 1 h, 105 µM [1] [%] | logP at 24 h [2] | C(oil) [2] [mg/mL] | C(aqueous) [2] [mg/mL] | further results
1 | Nc1c2ccccc2nc2ccccc12 [Aminacrine] | -12.39 | 100 | 83.7 | 75.1 | 66.2 |  |  |  | 
2 | COC(=O)N[C@H](C(=O)N[C@@H](Cc1ccccc1)[C@@H](O)CN(Cc1ccc(-c2ccccn2)cc1)NC(=O)[C@@H](NC(=O)OC)C(C)(C)C)C(C)(C)C [Atazanavir] | -5.37 | 100 | 84.7 | 72.9 | 65.3 |  |  |  | 
3 | CC(Cc1cccc(C(F)(F)F)c1)NCCOC(=O)c1ccccc1 (stereo not drawn) [Benfluorex] |  | 100 |  |  |  |  |  |  | 
4 | CN(Cc1ccc(C(C)(C)C)cc1)Cc1cccc2ccccc12 [Butenafine] | -2.69 | 100 | 97.8 | 95.6 | 94.9 |  |  |  | 
5 | C[C@@H](NCCCc1cccc(C(F)(F)F)c1)c1cccc2ccccc12 [Cinacalcet] | -1.7 | 100 | 67.4 | 49 | 35.4 | 4.61 | 8.962 | 0.0002 | half-life at 105 µM [1]: 35.4 min; CLint scaled at 1 µM [3]: 67.4 mL/min/kg; microsomal CLint at 1 µM [3]: 65.6 µL/min/mg; half-life at 1 µM [3, 6]: 21.1 min; half-life at 1 µM [3, 7]: 21.1 min; Hepatic Extraction Ratio (ER) [3]: 0.76; Remaining Percentage 0.5 min [3]: 100.00%; Remaining Percentage 5 min [3]: 80.88%; Remaining Percentage 15 min [3]: 55.07%; Remaining Percentage 30 min [3]: 37.55%; Predicted Hepatic CLH [3]: 16.01 mL/min/kg
6 | CCN(CC)C(=O)c1cccc(C)c1 [Diethyltoluamide] | 0.82 | 100 | 89 | 81.7 | 75.5 |  |  |  | 
7 | CC(C(=O)O)c1ccc(-c2ccccc2)c(F)c1 (stereo not drawn) [Flurbiprofen] | 7.13 | 100 | 50.1 | 25.1 | 9.28 | 1.14 | 1.858 | 0.135 | 
8 | CC(C(=O)O)c1ccc(N2Cc3ccccc3C2=O)cc1 (stereo not drawn) [Indoprofen] | -14.04 | 100 | 97.6 | 99 | 102 | 1.02 | 0.943 | 0.091 | 
9 | COc1ccc2cc(CCC(C)=O)ccc2c1 [Nabumetone, nabumetone] | 5.23 | 100 | 58 | 40.7 | 21.7 |  |  |  | 
10 | COc1ccccc1N1CCN(CC(O)COc2cccc3ccccc23)CC1 (stereo not drawn) [Naftopidil] | -25.63 | 100 | 72.2 | 58.9 | 47 | 2.04 | 1.697 | 0.016 | 
11 | O=C(C1CCCCC1)N1CC(=O)N2CCc3ccccc3C2C1 (stereo not drawn) [Praziquantel, praziquantel] | -15.26 |  |  | 31.8 | 15.3 |  |  |  | 
12 | CCCNC(C)C(=O)Nc1ccccc1C (stereo not drawn) [Prilocaine] | -13.77 | 100 | 86 | 75 | 67.4 | 1.02 | 1.306 | 0.124 | 
13 | CCC1(c2ccccc2)C(=O)NCNC1=O [Primidone] | 2.16 | 100 | 71 | 43.6 | 27.8 |  |  |  | 
14 | CC(C)NCC(O)COc1cccc2ccccc12 (stereo not drawn) [Propranolol] |  |  |  |  |  |  | 2.871 | 0.015 | 
15 | CCOC(=O)[C@H](C)C[C@@H](Cc1ccc(-c2ccccc2)cc1)NC(=O)CCC(=O)O [Sacubitril] | -1.91 | 100 | 60.2 | 34 | 22.6 | 1.47 | 1.368 | 0.047 | 
16 | CCN(Cc1ccncc1)C(=O)C(CO)c1ccccc1 (stereo not drawn) [Tropicamide] | -2.61 | 100 | 95.2 | 91.9 | 88.1 |  |  |  | 
17 | O=C(/C=C/c1ccccc1)N[C@@H](Cc1ccccc1)C(=O)N[C@@H](C[C@@H]1CCNC1=O)C(=O)C(=O)NCc1ccccc1 [compound 1] |  |  |  |  |  |  |  |  | pIC50 (SARS-CoV M^pro): 5.71
18 | O=C(/C=C/c1ccccc1)N[C@@H](CC1CCCCC1)C(=O)N[C@@H](C[C@@H]1CCNC1=O)C(=O)C(=O)NCc1ccccc1 [compound 2] |  |  |  |  |  |  |  |  | pIC50 (SARS-CoV M^pro): 6.15
19 | CC1(C)OC(=O)N(c2ccc(C(=O)Nc3cccc4cccnc34)cc2)[C@H]1c1ccccc1 [compound 3] |  |  |  |  |  |  |  |  | Solubility [4]: 5 µg/mL (≈ 11.4 µM); Plasma stability (t1/2) [5]: 312 min
20 | CC1(C)OC(=O)N([C@H]2CC[C@H](C(=O)Nc3cccc4cccnc34)CC2)[C@H]1c1ccccc1 [compound 4] |  |  |  |  |  |  |  |  | Plasma stability (t1/2) [5]: > 500 min
21 | CCCNC(C)C(=O)NC1CCCCC1C (stereo not drawn) [compound 15] |  |  |  |  |  | 1.39 | 1.569 | 0.064 | 
22 | CC(C)NCC(O)COC1CCCC2CCCCC21 (stereo not drawn) [compound 23] |  |  |  |  |  | 2.62 | 2.697 | 0.007 | 
23 | CC(C(=O)O)c1ccc(C2CCCCC2)c(F)c1 (stereo not drawn) [compound 27] |  |  |  |  |  | 1.54 | 2.453 | 0.071 | microsomal stability upon saturation ([1]; human liver microsomes, saturated congener versus parent drug, in words): increase in stability
24 | COc1ccccc1N1CCN(CC(O)COc2cccc3c2CCCC3)CC1 (stereo not drawn) [compound 28] |  |  |  |  |  | 2.1 | 1.761 | 0.014 | 
25 | CC(C(=O)O)c1ccc(N2C[C@H]3CCCC[C@H]3C2=O)cc1 (stereo partly drawn) [compound 37] |  |  |  |  |  | 0.813 | 0.897 | 0.138 | 
26 | C[C@@H](NCCCc1cccc(C(F)(F)F)c1)c1cccc2c1CCCC2 [compound 39] |  |  |  |  |  | 4.79 | 9.541 | 0.0001 | half-life at 105 µM [1]: 33.7 min; CLint scaled at 1 µM [3]: 68 mL/min/kg; microsomal CLint at 1 µM [3]: 66.2 µL/min/mg; half-life at 1 µM [3, 6]: 21 min; half-life at 1 µM [3, 7]: 21 min; Hepatic Extraction Ratio (ER) [3]: 0.76; Remaining Percentage 0.5 min [3]: 100.00%; Remaining Percentage 5 min [3]: 85.98%; Remaining Percentage 15 min [3]: 57.81%; Remaining Percentage 30 min [3]: 38.01%; Predicted Hepatic CLH [3]: 16.05 mL/min/kg
27 | CCOC(=O)[C@H](C)C[C@@H](Cc1ccc(C2CCCCC2)cc1)NC(=O)CCC(=O)O [compound 70] |  |  |  |  |  | 1.39 | 0.737 | 0.030 | 
